{"source": "patent US8481539B2", "about": "“Alkynylaryl compounds and salts thereof, pharmaceutical compositions comprising same, methods of preparing same and uses of same” (Bayer Intellectual Property GmbH, priority 2007, dated 2013)", "assay_type_in_all_cases": "biochemical", "key": {"[1]": {"molecular_target": "T1, Tie-2 (Homo sapiens, UniProt Q02763)", "T1 construct": "fusion protein of GST and the intracellular domains of Tie-2; GST; made in house; host or cells: insect cells (Hi-5)", "T1 sequence (Q02763 770-1124 limits assumed, species assumed)": "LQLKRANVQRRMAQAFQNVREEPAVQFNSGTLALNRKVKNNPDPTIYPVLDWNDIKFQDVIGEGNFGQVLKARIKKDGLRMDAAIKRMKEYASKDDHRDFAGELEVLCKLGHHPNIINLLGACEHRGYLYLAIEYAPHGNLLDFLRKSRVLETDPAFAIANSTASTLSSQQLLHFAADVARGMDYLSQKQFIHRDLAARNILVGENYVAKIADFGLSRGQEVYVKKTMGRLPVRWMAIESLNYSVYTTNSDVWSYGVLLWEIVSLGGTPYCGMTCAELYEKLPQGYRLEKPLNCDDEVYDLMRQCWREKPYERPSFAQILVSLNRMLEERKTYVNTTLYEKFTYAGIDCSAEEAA", "assay": "Tie-2-Kinase HTRF-Assay (assay 2)", "details": "pIC50 class; 10 μM ATP; read-out: Enzymatic Tie 2 activity (assay 2)", "description": "Tie2-inhibitory activity of compounds of the present invention was quantified employing two Tie2 HTRF assay as described in the following paragraphs.\nA recombinant fusion protein of GST and the intracellular domains of Tie-2, expressed in insect cells (Hi-5) and purified by Glutathion-Sepharose affinity chromatography was used as kinase. Alternatively, commercially available GST-Tie2-fusion protein (Upstate Biotechnology, Dundee, Scotland) can be used As substrate for the kinase reaction the biotinylated peptide biotin-Ahx-EPKDDAYPLYSDFG (C-terminus in amid form) was used which can be purchased e.g. from the company Biosynthan GmbH (Berlin-Buch, Germany). Detection of phosphorylated product is achieved specifically by a trimeric detection complex consisting of the phosphorylated substrate, streptavidin-XLent (SA-XLent) which binds to biotin, and Europium Cryptate-labeled anti-phosphotyrosine antibody PT66 which binds to phosphorylated tyrosine.\nTie-2 (3.5 ng/measurement point) was incubated for 60 min at 22° C. in the presence of 10 μM adenosine-tri-phosphate (ATP) and 1 μM substrate peptide (biotin-Ahx-EPKDDAYPLYSDFG-NH2) with different concentrations of test compounds (0 μM and concentrations in the range 0.001-20 μM) in 5 μl assay buffer [50 mM Hepes/NaOH pH 7, 10 mM MgCl2, 0.5 mM MnCl2, 1.0 mM dithiothreitol, 0.01% NP40, protease inhibitor mixture (“Complete w/o EDTA” from Roche, 1 tablet per 2.5 ml), 1% (v/v) dimethylsulfoxide]. The reaction was stopped by the addition of 5 μl of an aqueous buffer (25 mM Hepes/NaOH pH 7.5, 0.28% (w/v) bovine serum albumin) containing EDTA (90 mM) and the HTRF (Homogeneous Time Resolved Fluorescence) detection reagents streptavidine-XLent (0.2 μM, from Cis Biointemational, Marcoule, France) and PT66-Eu-Chelate (0.3 ng/μl; a europium-chelate labelled anti-phospho-tyrosine antibody from Perkin Elmer).\n(§1) The resulting mixture was incubated 1 h at 22° C. to allow the binding of the biotinylated phosphorylated peptide to the streptavidine-XLent and the PT66-Eu-Chelate. Subsequently the amount of phosphorylated substrate peptide was evaluated by measurement of the resonance energy transfer from the PT66-Eu-Chelate to the streptavidine-XLent. Therefore, the fluorescence emissions at 620 nm and 665 nm after excitation at 350 nm was measured in a HTRF reader, e.g. a Rubystar (BMG Labtechnologies, Offenburg, Germany) or a Viewlux (Perkin-Elmer). The ratio of the emissions at 665 nm and at […] was taken as the measure for the amount of phosphorylated substrate peptide. The data were normalised (enzyme reaction without inhibitor=0 (% inhibition, all other assay components but no enzyme=100% inhibition) and IC50 values were calculated by a 4 parameter fit using an inhouse software."}, "[2]": {"molecular_target": "T2, human VEGFR2 (Homo sapiens, UniProt P35968)", "T2 construct": "GST-tagged recombinant kinase domain of the human VEGFR2; GST; host or cells: SF-9 cells", "T2 sequence (P35968 834-1162 limits assumed)": "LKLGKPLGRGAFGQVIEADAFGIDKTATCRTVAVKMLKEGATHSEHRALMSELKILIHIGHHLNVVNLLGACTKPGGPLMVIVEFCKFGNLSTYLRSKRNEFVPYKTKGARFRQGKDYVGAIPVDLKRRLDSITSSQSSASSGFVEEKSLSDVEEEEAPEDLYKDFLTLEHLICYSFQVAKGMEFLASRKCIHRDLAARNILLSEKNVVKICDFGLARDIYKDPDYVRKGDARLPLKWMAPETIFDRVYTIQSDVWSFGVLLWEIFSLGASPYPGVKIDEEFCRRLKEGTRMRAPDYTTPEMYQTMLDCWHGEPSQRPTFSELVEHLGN", "assay": "VEGFR2 HTRF Assay (assay 5)", "details": "pIC50 class; 10 μM ATP; read-out: Enzymatic VEGFR2 activity (assay 5)", "description": "Assay 5: VEGFR2 HTRF Assay\nVEGFR2 inhibitory activity of compounds of the present invention was quantified employing the VEGFR2 HTRF assay as described in the following paragraphs.\nGST-tagged recombinant kinase domain of the human VEGFR2 expressed in SF-9 cells was used as kinase. As substrate for the kinase reaction the biotinylated peptide biotin-Ahx-DFGLARDMYDKEYYSVG (C-terminus in acid form) was used which can be purchased e.g. form the company Biosynthan GmbH (Berlin-Buch, Germany). VEGFR2 was incubated for 45 min at 22° C. in the presence of different concentrations of test compounds in 5 μl assay buffer [50 mM Hepes/NaOH pH 7.0, 25 mM MgCl2, 5 mM MnCl2, 1.0 mM dithiothreitol, 0.1 mM sodium ortho-vanadate, 10 μM adenosine-tri-phosphate (ATP), 0.5 μM substrate, 0.001% (v/v) Nonidet-P40 (Sigma), 1% (v/v) dimethylsulfoxide]. The concentration of VEGFR2 was adjusted depending of the activity of the enzyme lot and was chosen appropriate to have the assay in the linear range. The reaction was stopped by the addition of 5 μl of a solution of HTRF detection reagents (0.1 μM streptavidine-XLent and 2 nM PT66-Eu-Chelate, an europium-chelate labelled anti-phospho-tyrosine antibody from Perkin Elmer) in an aqueous EDTA-solution (125 mM EDTA, 0.2% (w/v) bovine serum albumin in 50 mM HEPES/NaOH pH 7.0).\nas §1, with “incubated for” for “incubated”, “substrate” for “substrate peptide”, “substrate.” for “substrate peptide.”, “normalized” for “normalised”, “inhibitor=0%” for “inhibitor=0 (%”"}, "[3]": {"molecular_target": "T3, human insuline receptor (Ins-R) (Homo sapiens, UniProt P06213)", "T3 construct": "GST-tagged recombinant kinase domain of the human insuline receptor; GST; purchased ProQinase, Freiburg, Germany; host or cells: SF-9 cells", "T3 sequence (P06213 1023-1298 limits assumed)": "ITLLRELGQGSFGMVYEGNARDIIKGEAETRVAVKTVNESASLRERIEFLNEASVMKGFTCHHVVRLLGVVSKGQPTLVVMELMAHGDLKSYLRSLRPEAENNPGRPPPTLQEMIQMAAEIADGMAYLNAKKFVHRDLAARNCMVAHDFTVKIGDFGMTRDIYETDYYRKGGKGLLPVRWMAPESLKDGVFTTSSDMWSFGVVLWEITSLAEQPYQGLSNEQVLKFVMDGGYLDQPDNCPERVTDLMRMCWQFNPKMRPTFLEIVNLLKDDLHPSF", "assay": "Insulin Receptor HTRF Assay (assay 4)", "details": "pIC50 class; 10 μM ATP; read-out: Enzymatic InsR activity (assay 4)", "method": "Assay 4: Insulin Receptor HTRF Assay\nInhibitory activity of compounds against the kinase activity of the insulin receptor was quantified employing the Ins-R HTRF assay as described in the following paragraphs.\nGST-tagged recombinant kinase domain of the human insuline receptor (Ins-R, purchase from ProQinase, Freiburg, Germany) expressed in SF-9 cells was used as kinase. As substrate for the kinase reaction biotinylated poly-(Glu, Tyr) (Cis biointernational, France) was used.\nIns-R was incubated for 20 min at 22° C. in the presence of different concentrations of test compounds in 5 μl assay buffer [50 mM Hepes/NaOH pH 7, 15 mM MnCl2, 1 mM dithiothreitol, 0.1 μM sodium ortho-vanadate, 0.015% (v/v) PEG20000, 10 μM adenosine-tri-phosphate (ATP), 0.3 μg/ml substrate, 1% (v/v) dimethylsulfoxide]. The concentration of Ins-R was adjusted depending of the activity of the enzyme lot and was chosen appropriate to have the assay in the linear range, typical concentrations were in the range of 10 pg/μl. The reaction was stopped by the addition of 5 μl of a solution of HTRF detection reagents (0.1 μM streptavidine-XLent and 1 nM PT66-Eu-Chelate, an europium-chelate labelled anti-phospho-tyrosine antibody from Perkin Elmer) in an aqueous EDTA-solution (80 mM EDTA, 0.2% (w/v) bovine serum albumin in 50 mM HEPES/NaOH pH 7.0).\nas §1, with “substrate” for “substrate peptide”, “substrate.” for “substrate peptide.”, “inhibitor=0%” for “inhibitor=0 (%”"}}, "data": [{"smiles": "Cn1ncc2c(C#Cc3cc(NC(=O)Nc4cccc(C(F)(F)F)c4)ccc3F)cncc21", "note": "[Example 2.6, 1-[4-Fluoro-3-(1-methyl-1H-pyrazolo[3,4-c]pyridin-4-ylethynyl)-phenyl]-3-(3-trifluoromethyl-phenyl)-urea]", "values": [{"measurement": "IC50", "setting": "[1]", "value": "< 1000", "unit": "nM"}, {"measurement": "IC50", "setting": "[2]", "value": "< 1000", "unit": "nM"}, {"measurement": "IC50", "setting": "[3]", "value": "≥ 10000", "unit": "nM"}]}]}
